Measurements: PMC7180572, “5-Alkylamino-N-phenylpyrazine-2-carboxamides: Design, Preparation, and Antimycobacterial Evaluation” (Molecules, 2020)
In brackets after ≈: the same amount, converted by molar mass.

Key:
[1] = test system: Mycobacterium tuberculosis H37Ra ITM-M006710 (ATCC 9431); experiment: Microdilution broth, modified Microplate Alamar Blue Assay, whole cell growth inhibition; type: cell-based; conditions: Mycobacterium tuberculosis; in vitro, Middlebrook 7H9 broth, resazurin; read-out: MIC Mtb H37Ra
[2] = test system: Mycobacterium aurum DSM 43999 (ATCC 23366); experiment: as above; type: cell-based; conditions: Mycolicibacterium aurum; in vitro, Middlebrook 7H9 broth, resazurin; read-out: MIC Mycobacterium aurum
[3] = test system: Mycobacterium smegmatis DSM 43465 (ATCC 607); experiment: as above; type: cell-based; conditions: Mycolicibacterium smegmatis; in vitro, Middlebrook 7H9 broth, resazurin; read-out: MIC Mycobacterium smegmatis
[4] = test system: Serratia marcescens; experiment: Antibacterial microdilution broth method (EUCAST); type: cell-based; conditions: 48 h, standards, read-out: MIC against Serratia marcescens
[5] = test system: M. kansasii CNCTC My 235/80 (ATCC 12478); experiment: 96 well plate microdilution broth method with Alamar Blue; type: cell-based; conditions: Mycobacterium kansasii, ATCC12478; Middlebrook 7H9 broth pH 6.6; read-out: MIC Mycobacterium kansasii
[6] = test system: M. avium ssp. avium CNCTC My 80/72 (ATCC 15769); experiment: as above; type: cell-based; conditions: Mycobacterium avium, ATCC15769; Middlebrook 7H9 broth pH 6.6; read-out: MIC Mycobacterium avium
[7] = test system: HepG2 cells; experiment: HepG2 cytotoxicity, CellTiter 96 (MTS) assay; type: cell-based, human; conditions: Homo sapiens, HepG2; 24 h incubation; > means higher concentration not reproducible due to precipitation; read-out: HepG2 IC50
[8] = type: physicochemical
Method: As a complementary test, final compounds were tested for in vitro activity against selected fungal and bacterial pathogens of clinical importance. The microdilution broth method was performed according to The European Committee on Antimicrobial Susceptibility Testing (EUCAST) instructions with slight modifications. The minimum inhibitory concentration was expressed in µM. Not all compounds were evaluated due to the fact of a problem with solubility which occurred for 18 samples. […] See Supplementary Materials for the list of tested strains, methodology, and full results.

[9] = test system: Staphylococcus aureus spp.aureus ATCC 29213, CCM 4223; experiment: Antibacterial microdilution broth method (EUCAST); type: cell-based; conditions: 48 h, read-out: MIC against Staphylococcus aureus
[10] = test system: Staphylococcus aureus methicillin resistant ATCC 43300, CCM 4750; experiment: microbe, parasite or virus in culture; type: cell-based; conditions: 48 h, read-out: MIC against Staphylococcus aureus methicillin resistant
[11] = test system: Staphylococcus epidermidis ATCC 12228, CCM 4418; experiment: Antibacterial microdilution broth method (EUCAST); type: cell-based; conditions: 48 h, read-out: MIC against Staphylococcus epidermidis
[12] = test system: Enterococcus faecalis ATCC 29212, CCM 4224; experiment: Antibacterial microdilution broth method (EUCAST); type: cell-based; conditions: 48 h, read-out: MIC against Enterococcus faecalis
[13] = test system: Escherichia coli ATCC 25922, CCM 3954; experiment: Antibacterial microdilution broth method (EUCAST); type: cell-based; conditions: 48 h, read-out: MIC against Escherichia coli
[14] = test system: Pseudomonas aeruginosa ATCC 27853, CCM 3955; experiment: Antibacterial microdilution broth method (EUCAST); type: cell-based; conditions: 48 h, read-out: MIC against Pseudomonas aeruginosa
[15] = test system: Klebsiella pneumoniae ATCC 10031, CCM 4415; experiment: Antibacterial microdilution broth method (EUCAST); conditions: Klebsiella pneumoniae, ATCC10031|CCM4415, 48 h, read-out: MIC against Klebsiella pneumoniae

## O=C(O)c1cn(C2CC2)c2cc(N3CCNCC3)c(F)cc2c1=O [CPX, ciprofloxacin, reference compound]
[1]
  MIC: 0.125 to 0.25 µg/mL (≈ 0.377 to 0.754 µM)
[2]
  MIC: 0.0156 to 0.0313 µg/mL (≈ 0.0471 to 0.0945 µM)
[3]
  MIC: 0.0625 to 0.125 µg/mL (≈ 0.189 to 0.377 µM)
[4]
  MIC: 0.256 µg/mL (≈ 0.773 µM)

## CCCCCCCNc1cnc(C(=O)Nc2ccc(Cl)cc2O)cn1 [Compound 6e, N-(4-chloro-2-hydroxyphenyl)-5-(heptylamino)pyrazine-2-carboxamide]
[1]
  MIC: ≥ 500 µg/mL
[2]
  MIC: ≥ 500 µg/mL
[3]
  MIC: ≥ 500 µg/mL
[5]
  MIC: 25 µg/mL (≈ 68.9 µM)
[6]
  MIC: > 100 µg/mL
[7]
  IC50: > 25 µM
[8]
  Solubility problem in antibacterial/antifungal testing: did not dissolve in DMSO
other
  melting point: 199.8 to 200.8 °C

## CNC(C)C1CCC(N)C(OC2C(N)CC(N)C(OC3OCC(C)(O)C(NC)C3O)C2O)O1 (centres unmarked) [gentamicin, reference compound]
[9]
  MIC: 1 µg/mL (≈ 2.09 µM)
[10]
  MIC: 16 to 32 µg/mL (≈ 33.5 to 67 µM)
[11]
  MIC: > 8 µg/mL
[12]
  MIC: 8 µg/mL (≈ 16.8 µM)
[13]
  MIC: 1 to 2 µg/mL (≈ 2.09 to 4.19 µM)
[14]
  MIC: 0.5 µg/mL (≈ 1.05 µM)
[4]
  MIC: 2 µg/mL (≈ 4.19 µM)
[15]
  MIC: > 8 µg/mL
